Experimental data from ChEMBL document CHEMBL1201862, “PubChem BioAssay data set” (2004).
Active and inactive are the calls of the source.

Tests used:
Cysteine protease ATG4B = Cysteine protease ATG4B (Homo sapiens, UniProt Q9Y4P1); type: functional;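 note: Fluorescence-based dose-response confirmation assay measuring inhibition of ATG4B activity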
Phospholipase A2 = Phospholipase A2 (Homo sapiens, UniProt P04054); type: functional;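 note: confirmatory dose-response counterscreen on phospholipase A2, testing hits that came from an ultra-high-throughput screen for ATG4B inhibitors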
HEK293 [1] = assay: cells; type: functional, cell-based; conditions: Homo sapiens
CAAX prenyl protease 2 [2] = molecular target: CAAX prenyl protease 2 (Homo sapiens, UniProt Q9Y256); assay: human Rce1 protease inhibitors, dose response, biochemical, yeast membranes, quenched-peptide fluorescence, cherry-pick (AID 588849)
[3] = cytotoxicity toward NIH3T3 fibroblasts, dose response, counter-screen, cell-based, ATP luminescence, mouse fibroblasts (AID 2010); type: functional;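 note: cells exposed to compound for about 90 hours before reading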
HEK293 [4] = assay: NOD1 signaling inhibitors, primary screen, cell-based, luminescence, uHTS (AID 1578); type: functional; conditions: Homo sapiens
HEK293 [5] = assay: NOD2 signaling inhibitors in MDP-stimulated cells, cell-based, uHTS, luminescence (AID 2001); type: functional; conditions: Homo sapiens
[6] = molecular target: DNA repair protein RAD52 homolog (Homo sapiens, UniProt P43351); type: functional, biochemical
CAAX prenyl protease 2 [7] = molecular target: CAAX prenyl protease 2 (Saccharomyces cerevisiae S288c, UniProt Q03530); type: biochemical
HEK293 [8] = assay: cells; type: functional, cell-based; conditions: Homo sapiens; remark: listed apart in the source
Streptokinase A = molecular target: T1, Streptokinase A (Streptococcus pyogenes serotype M1, UniProt P10520); assay: S. pyogenes streptokinase expression inhibitors, potency, dose response, plasminogen activation absorbance, OD405 (AID 1914); type: functional, Streptococcus pyogenes M1 GAS;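 note: secreted streptokinase activity via plasminogen activation per viability signal from cell pellet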
T1 sequence (P10520 whole entry): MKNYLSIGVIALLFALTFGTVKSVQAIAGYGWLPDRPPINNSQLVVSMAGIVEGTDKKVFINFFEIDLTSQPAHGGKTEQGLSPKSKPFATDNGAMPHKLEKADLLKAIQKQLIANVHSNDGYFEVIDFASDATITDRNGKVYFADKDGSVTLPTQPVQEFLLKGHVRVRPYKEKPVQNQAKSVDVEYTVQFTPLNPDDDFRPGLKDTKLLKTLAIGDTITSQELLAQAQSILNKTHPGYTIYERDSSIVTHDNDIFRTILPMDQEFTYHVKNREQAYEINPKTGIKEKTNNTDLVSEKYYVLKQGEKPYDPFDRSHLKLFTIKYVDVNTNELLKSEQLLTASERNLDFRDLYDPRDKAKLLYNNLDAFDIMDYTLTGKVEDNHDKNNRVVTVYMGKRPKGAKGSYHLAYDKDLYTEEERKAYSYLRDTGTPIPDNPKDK

[9] = test system: Streptococcus sp. 'group A'; assay: growth inhibition of control SK(-) GAS strain, dose response, counter-screen for streptokinase expression inhibitor project, luminescence, kanamycin, BacTiterGlo, confirmation (AID 1900); type: functional, organism-based
Streptococcus = assay: Group A Streptococcus viability loss, dose response, counter-screen for streptokinase expression inhibitor project, luminescence, BacTiterGlo (AID 1915); type: functional, organism-based;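 note: potency for reduction of bacterial viability or growth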
[10] = inhibitors of intracellular T. cruzi replication, confirmation, NIH3T3 host cells, beta-gal luminescence (AID 2044); type: functional, cell-based;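 note: intracellular parasites grown in NIH/3T3 mouse fibroblasts as host cells; luminescent beta-galactosidase reporter signal from transgenic T. cruzi replicating inside host cells; inhibitors lower the luminescence signal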
CAAX prenyl protease 1 = CAAX prenyl protease 1 (Saccharomyces cerevisiae S288c, UniProt P47154); assay: Ste24 protease inhibitors, dose response, biochemical, S. cerevisiae, plate reader, cherry-pick (AID 488815)
Protein RecA = molecular target: T2, Protein RecA (Mycobacterium tuberculosis, UniProt P9WHJ3); assay: Fluorescence Cell-Free Homogeneous Dose Retest to Identify Inhibitors of RecA-Intein Splicing Activity. [Related pubchem assays (depositor defined):AID2097, AID2223, AID489010, AID492950]; type: functional
T2 sequence (P9WHJ3 whole entry): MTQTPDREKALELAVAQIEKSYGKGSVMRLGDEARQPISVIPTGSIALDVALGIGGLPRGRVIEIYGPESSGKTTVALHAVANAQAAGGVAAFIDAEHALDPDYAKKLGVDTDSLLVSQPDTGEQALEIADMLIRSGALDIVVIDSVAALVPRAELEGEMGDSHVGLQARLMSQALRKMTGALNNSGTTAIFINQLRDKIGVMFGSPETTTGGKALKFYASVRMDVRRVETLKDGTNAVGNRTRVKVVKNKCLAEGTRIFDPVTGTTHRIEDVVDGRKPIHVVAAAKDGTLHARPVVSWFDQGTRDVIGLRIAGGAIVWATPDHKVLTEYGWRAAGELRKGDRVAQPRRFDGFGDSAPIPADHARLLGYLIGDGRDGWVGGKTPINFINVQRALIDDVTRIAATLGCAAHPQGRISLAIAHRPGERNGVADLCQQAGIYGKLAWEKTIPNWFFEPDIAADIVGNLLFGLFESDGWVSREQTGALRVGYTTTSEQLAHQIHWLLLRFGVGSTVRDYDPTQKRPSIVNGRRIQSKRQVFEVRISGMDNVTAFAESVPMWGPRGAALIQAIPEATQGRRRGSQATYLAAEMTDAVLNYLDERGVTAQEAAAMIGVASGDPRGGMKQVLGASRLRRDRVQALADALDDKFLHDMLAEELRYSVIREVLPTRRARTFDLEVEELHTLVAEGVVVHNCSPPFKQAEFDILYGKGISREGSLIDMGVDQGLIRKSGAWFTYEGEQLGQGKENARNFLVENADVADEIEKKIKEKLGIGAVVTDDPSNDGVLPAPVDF

Prothrombin = Prothrombin (Bos taurus, UniProt P00735); assay: thrombin inhibition, dose response, biochemical, fluorescence polarization, uHTS hits (AID 602369); type: functional
[11] = molecular target: 72 kDa type IV collagenase (Homo sapiens, UniProt P08253); assay: Dose Response validation of uHTS RPN11 inhibitor hits using a MMP-2 Fluorescence assay.; type: functional
[12] = molecular target: 26S proteasome non-ATPase regulatory subunit 14 (Homo sapiens, UniProt O00487); assay: inhibition of proteasome subunit RPN11 – biochemical, fluorescence polarization, uHTS hits, confirmation (AID 602368); type: functional
[13] = molecular target: T3, Replicative DNA helicase DnaB (Mycobacterium tuberculosis, UniProt P9WMR3); assay: DnaB intein splicing inhibitors, dose response, biochemical, cell-free fluorescence (AID 449749); type: functional
T3 sequence (P9WMR3 whole entry): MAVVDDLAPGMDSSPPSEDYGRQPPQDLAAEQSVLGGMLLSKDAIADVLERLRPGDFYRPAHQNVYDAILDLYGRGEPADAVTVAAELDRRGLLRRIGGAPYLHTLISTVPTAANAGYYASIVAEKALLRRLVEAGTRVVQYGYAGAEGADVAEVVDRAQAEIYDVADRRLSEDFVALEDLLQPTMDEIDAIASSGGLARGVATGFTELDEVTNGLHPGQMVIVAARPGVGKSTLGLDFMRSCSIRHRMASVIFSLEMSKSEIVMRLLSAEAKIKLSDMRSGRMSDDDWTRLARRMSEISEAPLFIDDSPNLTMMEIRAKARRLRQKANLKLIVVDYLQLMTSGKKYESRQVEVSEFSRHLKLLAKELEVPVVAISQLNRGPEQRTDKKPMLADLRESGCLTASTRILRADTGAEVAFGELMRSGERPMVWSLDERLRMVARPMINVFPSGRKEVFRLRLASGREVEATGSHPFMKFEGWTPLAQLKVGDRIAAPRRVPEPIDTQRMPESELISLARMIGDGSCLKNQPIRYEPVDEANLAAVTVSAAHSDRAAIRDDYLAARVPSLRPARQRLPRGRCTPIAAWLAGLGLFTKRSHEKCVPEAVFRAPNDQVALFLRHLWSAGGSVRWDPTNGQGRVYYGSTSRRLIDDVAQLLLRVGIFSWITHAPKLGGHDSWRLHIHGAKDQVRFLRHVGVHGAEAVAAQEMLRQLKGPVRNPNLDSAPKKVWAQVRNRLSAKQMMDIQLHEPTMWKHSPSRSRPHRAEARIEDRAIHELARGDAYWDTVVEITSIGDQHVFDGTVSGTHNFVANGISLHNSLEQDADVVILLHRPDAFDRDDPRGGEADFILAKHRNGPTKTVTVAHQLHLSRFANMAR

[14] = molecular target: Neuropeptides B/W receptor type 1 (Homo sapiens, UniProt P48145); assay: GPR7 antagonist potency, late-stage follow-up, cell-based, fluorescence, dose response, set 6 (AID 588583); type: functional
[15] = molecular target: Melanin-concentrating hormone receptor 1 (Homo sapiens, UniProt Q99705); assay: Late-stage fluorescence-based counterscreen for antagonists of the G-protein coupled receptor 7 (GPR7): cell-based dose response assay to identify antagonists of the melanin-concentrating hormone receptor 1 (MCHR1) Set 6.; type: functional
Chain of Melanin-concentrating hormone receptor 1 (Q99705 whole entry): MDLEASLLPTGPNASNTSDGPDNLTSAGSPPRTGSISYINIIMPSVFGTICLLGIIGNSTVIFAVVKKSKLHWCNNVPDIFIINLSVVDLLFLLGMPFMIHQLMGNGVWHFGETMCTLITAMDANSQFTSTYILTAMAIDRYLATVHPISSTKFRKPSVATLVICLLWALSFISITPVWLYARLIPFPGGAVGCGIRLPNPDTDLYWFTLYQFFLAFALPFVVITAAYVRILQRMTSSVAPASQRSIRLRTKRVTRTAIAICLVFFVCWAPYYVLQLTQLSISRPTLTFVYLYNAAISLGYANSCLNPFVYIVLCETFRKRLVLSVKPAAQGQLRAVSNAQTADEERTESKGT

Chain of Neuropeptides B/W receptor type 1 (P48145 whole entry): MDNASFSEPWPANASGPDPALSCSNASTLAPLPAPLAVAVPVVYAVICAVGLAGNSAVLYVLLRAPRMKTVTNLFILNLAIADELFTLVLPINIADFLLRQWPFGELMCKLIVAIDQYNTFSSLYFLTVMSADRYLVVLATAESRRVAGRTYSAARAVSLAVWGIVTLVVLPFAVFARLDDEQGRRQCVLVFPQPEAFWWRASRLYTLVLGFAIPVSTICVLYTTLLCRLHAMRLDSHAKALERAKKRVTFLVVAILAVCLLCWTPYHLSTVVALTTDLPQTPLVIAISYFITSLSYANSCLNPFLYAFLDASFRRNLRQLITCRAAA
Chain of CAAX prenyl protease 2 (Saccharomyces cerevisiae S288c, UniProt Q03530) (Q03530 whole entry): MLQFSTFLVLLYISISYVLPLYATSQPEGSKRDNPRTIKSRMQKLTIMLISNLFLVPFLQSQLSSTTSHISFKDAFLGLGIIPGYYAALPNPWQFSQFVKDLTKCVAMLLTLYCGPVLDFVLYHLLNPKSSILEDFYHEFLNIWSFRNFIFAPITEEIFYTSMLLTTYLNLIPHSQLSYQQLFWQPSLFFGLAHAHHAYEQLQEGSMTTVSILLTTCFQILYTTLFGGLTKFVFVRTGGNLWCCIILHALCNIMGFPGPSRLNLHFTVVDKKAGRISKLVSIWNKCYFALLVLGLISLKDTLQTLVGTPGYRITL
Chain of CAAX prenyl protease 2 (Homo sapiens, UniProt Q9Y256) (Q9Y256 whole entry): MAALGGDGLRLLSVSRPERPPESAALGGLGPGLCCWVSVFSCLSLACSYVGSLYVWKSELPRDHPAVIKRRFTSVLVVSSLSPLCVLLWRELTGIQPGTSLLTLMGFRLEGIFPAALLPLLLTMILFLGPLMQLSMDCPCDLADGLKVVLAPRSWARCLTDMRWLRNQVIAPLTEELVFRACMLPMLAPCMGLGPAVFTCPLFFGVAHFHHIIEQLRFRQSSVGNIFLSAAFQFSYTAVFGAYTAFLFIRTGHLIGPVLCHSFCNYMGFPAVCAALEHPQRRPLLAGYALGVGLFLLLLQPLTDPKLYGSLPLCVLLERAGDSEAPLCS
Chain of DNA repair protein RAD52 homolog (P43351 whole entry): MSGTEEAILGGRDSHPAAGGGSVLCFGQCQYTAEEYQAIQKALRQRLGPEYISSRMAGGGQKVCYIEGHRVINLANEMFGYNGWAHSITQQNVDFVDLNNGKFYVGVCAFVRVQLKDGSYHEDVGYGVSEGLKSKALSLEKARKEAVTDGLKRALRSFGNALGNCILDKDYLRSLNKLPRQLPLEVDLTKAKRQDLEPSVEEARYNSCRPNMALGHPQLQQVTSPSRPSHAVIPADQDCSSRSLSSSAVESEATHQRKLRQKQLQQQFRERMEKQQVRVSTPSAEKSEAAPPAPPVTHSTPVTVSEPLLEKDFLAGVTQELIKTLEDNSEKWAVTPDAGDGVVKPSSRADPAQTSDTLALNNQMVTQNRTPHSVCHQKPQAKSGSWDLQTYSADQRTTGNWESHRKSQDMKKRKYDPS
Chain of CAAX prenyl protease 1 (P47154 whole entry): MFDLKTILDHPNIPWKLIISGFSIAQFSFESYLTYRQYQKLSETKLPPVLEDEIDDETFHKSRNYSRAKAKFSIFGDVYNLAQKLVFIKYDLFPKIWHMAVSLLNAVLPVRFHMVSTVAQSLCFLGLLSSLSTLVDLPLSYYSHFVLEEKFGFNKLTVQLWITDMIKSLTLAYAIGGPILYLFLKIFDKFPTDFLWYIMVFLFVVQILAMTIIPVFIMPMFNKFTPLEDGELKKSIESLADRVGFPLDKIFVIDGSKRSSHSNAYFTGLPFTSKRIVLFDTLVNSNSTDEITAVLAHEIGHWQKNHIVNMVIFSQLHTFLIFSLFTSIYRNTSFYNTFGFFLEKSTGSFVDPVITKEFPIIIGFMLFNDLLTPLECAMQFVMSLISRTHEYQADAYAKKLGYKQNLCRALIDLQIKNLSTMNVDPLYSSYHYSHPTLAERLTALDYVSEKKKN
Chain of 26S proteasome non-ATPase regulatory subunit 14 (O00487 whole entry): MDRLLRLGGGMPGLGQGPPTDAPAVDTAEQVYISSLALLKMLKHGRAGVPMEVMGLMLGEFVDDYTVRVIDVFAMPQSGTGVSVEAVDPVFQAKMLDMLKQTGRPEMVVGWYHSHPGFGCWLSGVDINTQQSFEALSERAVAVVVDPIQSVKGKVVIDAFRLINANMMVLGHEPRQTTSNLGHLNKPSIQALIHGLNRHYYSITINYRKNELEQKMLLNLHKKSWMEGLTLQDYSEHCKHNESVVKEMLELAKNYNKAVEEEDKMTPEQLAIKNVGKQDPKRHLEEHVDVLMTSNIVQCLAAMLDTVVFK
Chain of Cysteine protease ATG4B (Q9Y4P1 whole entry): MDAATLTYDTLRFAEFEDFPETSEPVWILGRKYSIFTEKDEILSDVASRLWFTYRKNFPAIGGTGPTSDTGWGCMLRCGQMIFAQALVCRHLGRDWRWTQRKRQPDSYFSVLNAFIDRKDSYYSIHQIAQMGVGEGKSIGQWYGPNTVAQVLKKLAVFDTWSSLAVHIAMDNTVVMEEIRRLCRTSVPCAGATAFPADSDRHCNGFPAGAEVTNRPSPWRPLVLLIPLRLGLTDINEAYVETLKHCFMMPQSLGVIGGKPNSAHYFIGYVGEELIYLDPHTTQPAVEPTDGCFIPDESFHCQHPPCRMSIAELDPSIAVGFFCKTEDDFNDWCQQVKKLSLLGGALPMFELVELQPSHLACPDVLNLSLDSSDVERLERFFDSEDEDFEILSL
Chain of Phospholipase A2 (P04054 whole entry): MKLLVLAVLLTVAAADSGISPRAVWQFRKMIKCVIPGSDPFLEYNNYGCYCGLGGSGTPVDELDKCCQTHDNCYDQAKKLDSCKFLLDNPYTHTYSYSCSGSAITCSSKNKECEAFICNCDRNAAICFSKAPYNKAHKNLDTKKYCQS
Chain of 72 kDa type IV collagenase (P08253 whole entry): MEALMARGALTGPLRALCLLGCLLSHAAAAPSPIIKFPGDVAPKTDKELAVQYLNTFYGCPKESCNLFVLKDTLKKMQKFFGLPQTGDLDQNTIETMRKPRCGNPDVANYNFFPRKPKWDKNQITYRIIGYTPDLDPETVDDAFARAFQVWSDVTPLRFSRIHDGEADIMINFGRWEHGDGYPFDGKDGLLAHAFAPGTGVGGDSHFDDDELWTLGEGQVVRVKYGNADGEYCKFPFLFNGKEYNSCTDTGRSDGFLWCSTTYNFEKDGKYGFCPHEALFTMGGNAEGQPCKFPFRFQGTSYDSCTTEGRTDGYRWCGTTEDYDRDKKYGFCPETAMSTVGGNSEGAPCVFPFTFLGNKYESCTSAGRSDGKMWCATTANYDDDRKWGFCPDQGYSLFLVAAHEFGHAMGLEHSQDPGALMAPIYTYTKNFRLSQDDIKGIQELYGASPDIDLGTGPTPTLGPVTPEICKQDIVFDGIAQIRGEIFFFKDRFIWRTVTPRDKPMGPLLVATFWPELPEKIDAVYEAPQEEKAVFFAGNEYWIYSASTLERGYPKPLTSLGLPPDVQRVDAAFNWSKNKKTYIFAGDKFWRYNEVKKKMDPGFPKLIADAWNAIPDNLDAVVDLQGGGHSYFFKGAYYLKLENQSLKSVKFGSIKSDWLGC

Structure (SMILES) | AC50 (CAAX prenyl protease 2 [2]) | EC50 [3] | AC50 (CAAX prenyl protease 2 [7]) | EC50 (Streptokinase A) | EC50 [9] | EC50 (Streptococcus) | EC50 [10] | IC50 [14] | IC50 [15] | also measured
CCOC(=O)C(C)Sc1nc2ccccc2c(=O)n1CC1CCCCC1 (configuration not stated) | – | – | – | – | – | – | – | – | – | IC50 (Cysteine protease ATG4B): 2.36 µM (active); IC50 (Phospholipase A2): 2.05 µM (active)
CCC(C)(C)c1ccc(OCCCC[n+]2cccc(C)c2)c(C(C)(C)CC)c1 | 22 µM (active) | > 30 µM (not active) | 10.5 µM (active) | 14.1 µM (active) | 6.58 µM (active) | 14.9 µM (active) | < 0.1 µM (active) | – | – | IC50 (HEK293 [1]): 4.11 µM (active); EC50 (cells): 0.128 µM (active); EC50 (HEK293 [4]): 8.28 µM (active); IC50 (HEK293 [5]): 3.36 µM (active); AC50 [6]: 7.32 µM (active); IC50 (HEK293 [8]): 7.99 µM (active)
CNC(=S)N/N=C/c1cn(Cc2c(F)cccc2Cl)c2ccccc12 | 16 µM (active) | – | 0.818 µM (active) | – | – | – | – | – | – | AC50 (CAAX prenyl protease 1): 7.58 µM (active)
Nc1c(-c2ccccc2)c(CSc2nc3ccccc3[nH]2)nn1-c1cccc(Cl)c1 | – | > 60 µM (not active) | – | > 150 µM (not active) | 2.14 µM (active) | > 150 µM (not active) | 1.17 µM (active) | – | – | EC50 (Protein RecA): 2.71 µM (active); IC50 (Prothrombin): 41.5 µM (active); IC50 [11]: > 100 µM (inactive); IC50 [12]: 34 µM (active); AC50 [13]: 3.17 µM (active)
COc1ccc(Oc2c(Cl)cnn(Cc3ccccc3Br)c2=O)cc1 | – | – | – | – | – | – | – | 0.506 µM (active) | 0.506 µM (active) | –
CC(C#N)(c1ccccc1)c1c(Br)cnn(Cc2cccc3ccccc23)c1=O (configuration not stated) | – | – | – | – | – | – | – | 0.326 µM (active) | 0.326 µM (active) | –
